The target in experiment [1] is T1, Tie2 receptor tyrosine kinase (Homo sapiens, UniProt Q02763).
T1 construct: consist of only the intracellular portion C-terminal portion of the respective receptor, within which is found the kinase domain; made in house; host or cells: baculovirus/Sf21 insect cells (or alternative equivalent); cleared lysate used, not purified protein
The experiment is described as follows: In vitro receptor tyrosine kinase inhibition assay (ELISA based microtitre plate assay). The format is biochemical. Conditions: recombinant human Tie2 kinase domain lysate, ATP 5 micromolar or Km; read-out: IC50 (μM) Test (a): Inhibition of Tie2 receptor tyrosine kinase in vitro. The protocol: Constitutive kinase activity of these recombinant proteins was determined by their ability to phosphorylate a synthetic peptide (made up of a random co-polymer of Glutamic Acid, Alanine and Tyrosine in the ratio of 6:3:1). […] Plates were washed in 50 mM HEPES pH 7.4 at room temperature to remove any excess unbound synthetic peptide.
The immobilised phospho-peptide product of the reaction was detected by immunological methods.
Kinase inhibition for a given compound was expressed as an IC50 value. […] The range of phosphorylation was calculated from the positive (vehicle plus ATP) and negative (vehicle minus ATP) control values.
(An ELISA detects its analyte on a solid surface through an enzyme-linked reagent.)

For another experiment, the target named is T2, Tie2 receptor (Homo sapiens, UniProt Q02763).
T2 construct: one can use natural cell lines or primary cells which are known to express the receptor of choice; endogenous in cells; host or cells: EA.hy926/B3 cells
T2 sequence (Q02763 23-1124): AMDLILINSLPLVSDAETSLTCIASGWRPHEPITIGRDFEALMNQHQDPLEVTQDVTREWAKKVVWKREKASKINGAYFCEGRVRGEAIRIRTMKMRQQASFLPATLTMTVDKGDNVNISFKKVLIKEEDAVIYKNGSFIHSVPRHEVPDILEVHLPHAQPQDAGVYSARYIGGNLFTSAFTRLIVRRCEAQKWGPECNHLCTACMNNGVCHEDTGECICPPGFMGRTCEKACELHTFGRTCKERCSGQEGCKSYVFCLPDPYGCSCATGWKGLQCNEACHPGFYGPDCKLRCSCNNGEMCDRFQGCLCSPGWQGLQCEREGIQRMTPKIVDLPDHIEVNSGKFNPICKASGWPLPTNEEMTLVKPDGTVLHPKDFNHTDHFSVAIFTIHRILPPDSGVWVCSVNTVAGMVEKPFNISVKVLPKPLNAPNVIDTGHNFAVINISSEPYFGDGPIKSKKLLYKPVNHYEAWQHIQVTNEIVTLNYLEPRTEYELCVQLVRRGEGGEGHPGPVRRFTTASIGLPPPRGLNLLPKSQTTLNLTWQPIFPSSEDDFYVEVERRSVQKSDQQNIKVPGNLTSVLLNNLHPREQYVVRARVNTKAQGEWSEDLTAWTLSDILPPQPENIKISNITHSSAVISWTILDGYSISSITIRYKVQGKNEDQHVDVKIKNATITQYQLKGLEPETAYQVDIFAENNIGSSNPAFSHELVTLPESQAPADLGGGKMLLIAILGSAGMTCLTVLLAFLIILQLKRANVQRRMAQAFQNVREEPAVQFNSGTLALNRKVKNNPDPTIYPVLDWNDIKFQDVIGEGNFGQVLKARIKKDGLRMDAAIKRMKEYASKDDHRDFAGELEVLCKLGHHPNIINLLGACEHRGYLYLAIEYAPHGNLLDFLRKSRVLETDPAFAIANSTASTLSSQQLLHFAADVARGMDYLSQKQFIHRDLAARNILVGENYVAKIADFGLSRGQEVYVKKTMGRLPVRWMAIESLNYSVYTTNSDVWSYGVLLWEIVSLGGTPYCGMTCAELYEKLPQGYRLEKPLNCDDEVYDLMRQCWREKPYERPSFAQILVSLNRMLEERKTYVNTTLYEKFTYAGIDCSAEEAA
Nature of the experiment: Cellular Tie2 autophosphorylation assay (Ang1 ligand stimulated). The experiment is classed as cell-based.

The mark [2] stands for this setting: whole cells, for example EA.hy926/B3, Ang1 ligand stimulated, read-out: IC50 (μM) Test (b): Inhibition of autophosphorylation of Tie2 receptor tyrosine kinase.

Read-outs that look alike come from different tables or passages of the source.

T1 sequence (Q02763 770-1124 limits assumed): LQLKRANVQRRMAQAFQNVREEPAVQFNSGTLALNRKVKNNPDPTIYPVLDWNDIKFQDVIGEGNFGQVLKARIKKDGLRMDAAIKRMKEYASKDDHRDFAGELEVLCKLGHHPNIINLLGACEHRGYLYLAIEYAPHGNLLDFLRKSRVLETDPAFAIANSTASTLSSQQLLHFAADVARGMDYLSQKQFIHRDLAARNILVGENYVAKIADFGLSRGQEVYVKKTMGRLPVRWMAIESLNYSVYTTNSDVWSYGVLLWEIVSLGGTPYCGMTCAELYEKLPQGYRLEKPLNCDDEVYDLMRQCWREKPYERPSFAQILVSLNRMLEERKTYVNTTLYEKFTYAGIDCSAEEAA

In general, IC50 refers to the midpoint of a concentration-inhibition curve. Consider `Nc1ncnc(N)c1C#Cc1cccc(NS(=O)(=O)c2ccccc2Cl)c1` [Example 1, 2-chloro-N-{3-[(4,6-diaminopyrimidin-5-yl)ethynyl]phenyl}benzenesulfonamide], for which the IC50 in experiment [1] came to 7.5 µM; at Tie2 receptor (setting [2]), 0.78 µM.
`Nc1ncnc(N)c1C#Cc1cccc(NS(=O)(=O)c2cccc(Cl)c2Cl)c1` [Example 3, 2,3-dichloro-N-{3-[(4,6-diaminopyrimidin-5-yl)ethynyl]phenyl}benzenesulfonamide]: the IC50 in experiment [1] stood at 3.7 µM; at Tie2 receptor it was 0.29 µM.
In the case of `Nc1ncnc(N)c1C#Cc1cccc(NS(=O)(=O)c2cc(F)ccc2F)c1` [Example 6, N-{3-[(4,6-diaminopyrimidin-5-yl)ethynyl]phenyl}-2,5-difluorobenzenesulfonamide], the IC50 came out at 0.4 µM in experiment [1] and 0.34 µM at Tie2 receptor (setting [2]).

The record behind these values is patent publication US20080146599A1, “Pyrimidine Compounds Having Tie-2 (Tek) Inhibitory Activity” (ASTRAZENECA AB, priority 2005, published 2008).
